Assay results published in patent publication US20230000891A1, “HYBRID AMPHOTERICIN B DERIVATIVES WITH REDUCED TOXICITY” (The Board of Trustees of the University of Illinois, priority 2019, published 2023).
≈ marks a conversion by molar mass, not a printed value. Where two headings read alike, the source gives them in different places. One block for each compound: values may come before it.

Tests used:
[1] = system: A. fumigatus 91; test: Minimum Inhibition Concentration (MIC), antifungal activity; assay type: cell-based
[2] = system: C. tropicalis; test: as above; assay type: cell-based
[3] = system: C. glabrata; test: as above; assay type: cell-based
[4] = system: C. albicans; test: MIC with and without pre-complexation with ergosterol; assay type: cell-based; details: sponge pre-complexed with ergosterol
Description: Anderson, T. M. et al., Nat Chem Biol 2014, 10 (5), 400-6. […] Davis, S. A., et al., Nat Chem Biol 2015, 11 (7), 481-7. To test whether C2′epiAmB primarily kills cells via the same sterol sponge mechanism, the C2′epiAmB sponge was similarly pre-complexed with ergosterol (FIG. 9). […] Thus, C2′epiAmB similarly kills yeast primarily via sterol binding, and, by extension, the new compounds targeted in this application are expected to have a similar barrier to fungal resistance that has been observed for the past 50+ years with AmB.

[5] = system: C. krusei; test: Minimum Inhibition Concentration (MIC), antifungal activity; assay type: cell-based
[6] = system: A. fumigatus 1163; test: as above; assay type: cell-based
[7] = system: A. fumigatus 1100; test: as above; assay type: cell-based
[8] = system: C. albicans; test: as above; assay type: cell-based
[9] = system: yeast; test: Activity against yeast / fungal cell killing; assay type: cell-based
[10] = system: Candida and Aspergillus clinical isolates; test: In vitro antifungal activity, clinical isolates (Evotec); assay type: cell-based; details: many Candida and several Aspergillus strains
Description: (§1) In vitro antifungal activity of C2′epiAmB was compared with that of AmB against an extensive series of Candida and Aspergillus clinical isolates (FIG. 8A) at Evotec (Oxfordshire, UK). […] C2′epiAmB was also sent to the US national Fungus Testing Laboratory at UT-San Antonio for antifungal testing against an extended panel of especially challenging 40 Aspergillus clinical isolates, including azole-resistant A. fumigatus, A. flavus, and A. terreus (FIG. 8B). […] Recently, Steinbach and Burke directly compared the activity of AmB, AmBisome*, caspofungin, voriconazole, and C2′epiAmB against an even broader panel of clinically relevant invasive molds (FIG. 8C).

[11] = system: human red blood cells; test: Toxicity to human red blood cells; assay type: cell-based
[12] = system: primary hREC; test: Toxicity to primary human renal epithelial cells; assay type: cell-based
[13] = system: A. fumigatus; test: In vitro antifungal activity, A. fumigatus strains (Evotec); assay type: cell-based
Description: as §1

[14] = Isothermal titration calorimetry (ITC) sterol binding; details: within the detection limits of ITC
Description: This key discovery opened a path to the rational development of a non-toxic AmB variant. To probe its predicted role in sterol binding, the hydroxyl group was synthetically deleted at the C2′ position on the mycosamine appendage. […] Consistent with the sterol sponge model, this derivative retained good activity against yeast but, most importantly, was nontoxic to human red blood cells and primary (hREC) (FIG. 2B).
A practical 11-step synthesis of C2′epiAmB using a frontier site-selective acylation method was developed (FIG. 4). Wilcock, B. C. et al., Nat Chem 2012, 4 (12), 996-1003; Uno, B. E. A synthesis enabled understanding of Amphotericin B leading to derivatives with improved therapeutic indices. University of Illinois at Urbana-Champaign, 2014. The sterol binding and cell killing activities was then determined.

[15] = system: C. albicans; test: Murine model of invasive candidiasis; assay type: in vivo, Neutropenic ICR/Swiss mice; details: single IP injection
Description: Andes, D. et al., Antimicrobial agents and chemotherapy 2001, 45 (3), 922-6. In fact, the PD parameter that best correlates with outcome is Cmax−/MIC. The same was subsequently observed in a pulmonary model of invasive aspergillosis. Wiederhold, N. P. et al., Antimicrobial agents and chemotherapy 2006, 50 (2), 469-73.

[16] = Intravenous toxicity in rats (BUN, ALT/AST, mortality); assay type: in vivo; details: IV, 2, 10, and 17.5 mg/kg (highest dose tested)
Experimental: >100 mg of C2′epiAmB was prepared, formulated it as the corresponding deoxycholate complex, and evaluated this derivative head-to-head with AmB-deoxycholate for toxicity and efficacy in animal models. […] Alternatively, no elevations in BUN or ALT/AST and no mortality when rats were treated with IV injections of C2′epiAmB at doses of 2, 10, and 17.5 mg/kg (the highest dose that was tested) was observed.

[17] = system: clinically relevant invasive molds; test: Antifungal activity, broader panel of clinically relevant invasive molds; assay type: cell-based; details: many strains, including a pan-azole resistant strain (F14196)
Description: as §1

[18] = system: 40 Aspergillus clinical isolates, including azole-resistant A. fumigatus, A. flavus, and A. terreus; test: Antifungal testing, extended panel of 40 Aspergillus clinical isolates (Fungus Testing Laboratory, UT-San Antonio); assay type: cell-based
Description: as §1

[19] = Cmax after IV administration; assay type: in vivo, rats; details: C2′epiAmB at 17.5 mg/kg vs AmB at 1 mg/kg

- MIC ([1]; Aspergillus fumigatus): 2 µM (≈ 1.85 µg/mL)
- MIC ([2]; Candida tropicalis): 2 µM (≈ 1.85 µg/mL)
- MIC ([3]; Nakaseomyces glabratus): 0.5 µM (≈ 0.462 µg/mL)
- MIC ([5]; Pichia kudriavzevii): 2 µM (≈ 1.85 µg/mL)
- MIC ([6]; Aspergillus fumigatus): 2 µM (≈ 1.85 µg/mL)
- MIC ([7]; Aspergillus fumigatus): 2 µM (≈ 1.85 µg/mL)
- MIC ([8]; Candida albicans): 0.5 µM (≈ 0.462 µg/mL)
Structure (SMILES): C[C@@H]1[C@H](O)[C@@H](C)/C=C/C=C/C=C/C=C/C=C/C=C/C=C/[C@H](OC2O[C@H](C)[C@@H](O)[C@H](N)[C@@H]2O)CC2O[C@](O)(CC(O)CC(O)[C@H](O)CCC(O)CC(O)CC(=O)O[C@H]1C)CC(O)[C@H]2C(=O)O (stereo partly shown) [AmB, Amphotericin B]
- change in potency upon ergosterol pre-complexation [4]: same reduction in potency

Structure (SMILES): COC(=O)[C@H]1[C@@H]2C[C@@H](O[C@@H]3O[C@H](C)[C@@H](O)[C@H](N)[C@H]3O)/C=C/C=C/C=C/C=C/C=C/C=C/C=C/[C@H](C)[C@@H](O)[C@@H](C)[C@H](C)OC(=O)C[C@H](O)C[C@H](O)CC[C@@H](O)[C@H](O)C[C@H](O)C[C@](O)(C[C@@H]1O)O2 [C2'epiAmBME]
- MIC [1]: 4 µM (≈ 3.75 µg/mL)
- MIC [2]: 2 µM (≈ 1.88 µg/mL)
- MIC [3]: 4 µM (≈ 3.75 µg/mL)
- MIC [5]: 2 µM (≈ 1.88 µg/mL)
- MIC [6]: 4 µM (≈ 3.75 µg/mL)
- MIC [7]: 4 µM (≈ 3.75 µg/mL)
- MIC [8]: 1 µM (≈ 0.938 µg/mL)

Structure (SMILES): C[C@@H]1[C@H](O)[C@@H](C)/C=C/C=C/C=C/C=C/C=C/C=C/C=C/[C@H](O[C@@H]2O[C@H](C)[C@@H](O)[C@H](N)[C@H]2O)C[C@@H]2O[C@](O)(C[C@@H](O)C[C@@H](O)[C@H](O)CC[C@@H](O)C[C@@H](O)CC(=O)O[C@H]1C)C[C@H](O)[C@H]2C(=O)O [C2′epiAmB]
- activity against yeast / fungal cells [9]: kill fungal
- in vitro antifungal activity [10]: good activity
- MIC [1]: >64 µM
- toxicity to human red blood cells [11]: non-toxic
- MIC [2]: 4 µM (≈ 3.7 µg/mL)
- toxicity to primary hREC [12]: non-toxic
- MIC [3]: 8 µM (≈ 7.39 µg/mL)
- potency relative to AmB (less potent) ([13]; A. fumigatus strain AF91): > 32 times
- potency relative to AmB (less potent) ([13]; A. fumigatus strains AF293, A1163, and ATC204305): 4 fold
- change in potency upon ergosterol pre-complexation [4]: same reduction in potency
- cholesterol binding by ITC [14]: not (detectably) cholesterol
- ergosterol binding by ITC [14]: bind ergosterol
- fungal burden ([15]; 16 mg/kg dose): outstanding reductions in fungal burden
- efficacy ([15]; deoxycholate complex, 1, 4, 8, or 16 mg/kg): dose-dependent efficacy
- ALT/AST [16]: no elevations
- Blood Urea Nitrogen (BUN) [16]: no elevations
- mortality [16]: no mortality
- MIC [5]: 4 µM (≈ 3.7 µg/mL)
- MIC [6]: >64 µM
- MIC [7]: 32 µM (≈ 29.6 µg/mL)
- antifungal potency [17]: good antifungal potency
- average potency relative to AmB (less potent) ([18]; average across all 40 strains): 5.6 fold
- potency relative to AmB (less potent) ([18]; range over 40 Aspergillus clinical isolates): 2-16 times
- MIC [8]: 4 µM (≈ 3.7 µg/mL)
- Cmax relative to Cmax for AmB at 1 mg/kg [19]: > 16 fold
